{"source": "patent US20250214966A1", "about": "“Crystalline Salt Form Of A SHP2 Inhibitor” (Array BioPharma Inc., priority 2022, published 2025)", "key": {"[1]": {"experiment": "TGA/DSC of salts (Table 14)", "assay_type": "physicochemical", "settings": "10° C./min", "experimental": "TGA/DSC (Table 14): Approximately, 5-10 mg of material was added into a pre-tared open aluminum pan and loaded into a TA Instruments Discovery SDT 650 Auto—Simultaneous DSC and held at room temperature. The sample was then heated at a rate of 10° C./min from 20° C. (ambient) to 400° C. during which time the change in sample weight was recorded along with the heat flow response (DSC). Nitrogen was used as the sample purge gas, at a flow rate of 200 cm3/min.\nDSC (Table 14): Approximately, 1-5 mg of material was weighed into an aluminum DSC pan and sealed nonhermetically with an aluminum lid. The sample pan was then loaded into a TA Instruments Discovery DSC 2500 differential scanning calorimeter equipped with a RC90 cooler. The sample and reference were heated to 310° C. at a scan rate of 10° C./min and the resulting heat flow response monitored. The sample was re-cooled to 20° C. and then reheated again to 205° C. all at 10° C./min. Nitrogen was used as the purge gas, at a flow rate of 50 cm^3/min."}, "[2]": {"experiment": "Dynamic vapor sorption of salts (Table 14)", "assay_type": "physicochemical", "settings": "25° C.", "experimental": "DVS (Table 14): Approximately, 10-20 mg of sample was placed into a mesh vapor sorption balance pan and loaded into a DVS Intrinsic dynamic vapor sorption balance by Surface Measurement Systems. The sample was subjected to a ramping profile from 40-90% relative humidity (RH) at 10% increments, maintaining the sample at each step until a stable weight had been achieved (dm/dt 0.004%, minimum step length 30 minutes, maximum step length 500 minutes) at 25° C. After completion of the sorption cycle, the sample was dried using the same procedure to 0% RH and then a second sorption cycle back to 40% RH. Two cycles were performed. Theweight change during the sorption/desorption cycles were plotted, allowing for the hygroscopic nature of the sample to be determined. XRPD analysis was then carried out on any solid retained. […] The sample was subjected to a ramping profile from 40-90% relative humidity (RH) at 10% increments, maintaining the sample at each step until a stable weight had been achieved (dm/dt 0.004%, minimum step length 30 minutes, maximum step length 500 minutes) at 25° C. After completion of the sorption cycle, the sample was dried using the same procedure to 0% RH and then a second sorption cycle back to 40% RH. Two cycles were performed. The weight change during the sorption/desorption cycles were plotted, allowing for the hygroscopic nature of the sample to be determined. XRPD analysis was then carried out on any solid retained."}}, "note": "Structures can show the parent of a compound that is named as a salt.", "data": [{"compound": "Nc1nccc(Sc2cnc(N3CCC4(CC3)Cc3ccccc3[C@H]4N)nn2)c1Cl", "note": "[Example 3, (S)-1′-(6-((2-amino-3-chloropyridin-4-yl)thio)-1,2,4-triazin-3-yl)-1,3-dihydrospiro[indene-2,4′-piperidin]-1-amine Mono Succinate Salt Form 1]", "values": [{"measurement": "TGA/DSC Melt/degradation", "setting": "[1]", "value": 197.3, "unit": "°C"}, {"measurement": "DVS hygroscopic nature", "setting": "[2]", "value": "Slightly"}, {"measurement": "DVS Wt.", "setting": "[2]; up to 70% RH, possible hydration above 70% RH", "value": "hygroscopic 0.7%"}]}]}
